# Reference: ChEMBL document CHEMBL1201862, “PubChem BioAssay data set” (2004)
# Calls of active or inactive are those of the source.
# What was measured:
# [1] = blockers of HIV-1 envelope-mediated cell-cell fusion – cherry-pick, dose response (AID 652057); format: functional, cell-based
# [2] = HIV-1 AD8 envelope cell-cell fusion blockers – cherry-pick, dose response (AID 652062); format: functional, cell-based;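 note: luciferase signal from cell-cell fusion driven by HIV-1 clade B AD8 Env; potency is for inhibitors of fusion seen as a drop in luminescence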
# [3] = blockers of HIV-1 ZM109 envelope-driven cell-cell fusion – HeLa effector, CEM target cells, luciferase, cherry-pick, dose response (AID 652058); format: functional, cell-based;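 note: luciferase signal from HIV-1 Env mediated cell-cell fusion of effector and target cells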
# [4] = THP-1 cell cytotoxicity, dose response, cytotoxicity control for non-replicating M. tuberculosis project (AID 489025); format: functional
# cells = format: functional
# [5] = Luminescence Cell-Based Dose Retest to Confirm Inhibitors of Cancer Stem Cells. [Related pubchem assays (depositor defined):AID2717, AID2721]; format: functional; conditions: Homo sapiens
# [6] = viability of PTEN-deleted HCT116 cells – cell-based, HCT116 PTEN knockout, dose response (AID 1047); format: functional;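 note: HCT116 colon tumor cells with PTEN knocked out; cells exposed to compound for 60 hours before readout; potency for loss of cell viability measured by luminescence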
# [7] = viability of HCT116 lacking mutant beta-catenin – cell-based, human colon tumor, dose response (AID 1045); format: functional;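 note: HCT116 colon tumor cells with beta catenin knocked out; cells exposed to compound for 60 hours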
# [8] = biological target: Voltage-dependent T-type calcium channel subunit alpha-1H (Homo sapiens, UniProt O95180); format: functional;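 note: channel activity triggered by adding a high calcium stimulation buffer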
# [9] = biological target: T1, Ubiquitin-conjugating enzyme E2 N (Homo sapiens, UniProt P61088); format: functional;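 note: Dose-response confirmation in a TR-FRET assay detecting UBC13-driven polyubiquitin chain formation, inhibition measured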
# T1 sequence (P61088 whole entry): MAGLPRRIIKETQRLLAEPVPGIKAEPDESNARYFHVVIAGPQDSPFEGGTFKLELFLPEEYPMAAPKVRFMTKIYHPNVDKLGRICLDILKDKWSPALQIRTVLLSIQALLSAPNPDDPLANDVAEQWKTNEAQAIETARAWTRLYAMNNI
# Streptokinase A = biological target: T2, Streptokinase A (Streptococcus pyogenes serotype M1, UniProt P10520); assay: viability-normalized secreted streptokinase activity reduction – plasminogen activation absorbance, OD405, dose response (AID 1914); format: functional, Streptococcus pyogenes M1 GAS;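 note: secreted streptokinase activity via plasminogen activation per viability signal from cell pellet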
# T2 sequence (P10520 whole entry): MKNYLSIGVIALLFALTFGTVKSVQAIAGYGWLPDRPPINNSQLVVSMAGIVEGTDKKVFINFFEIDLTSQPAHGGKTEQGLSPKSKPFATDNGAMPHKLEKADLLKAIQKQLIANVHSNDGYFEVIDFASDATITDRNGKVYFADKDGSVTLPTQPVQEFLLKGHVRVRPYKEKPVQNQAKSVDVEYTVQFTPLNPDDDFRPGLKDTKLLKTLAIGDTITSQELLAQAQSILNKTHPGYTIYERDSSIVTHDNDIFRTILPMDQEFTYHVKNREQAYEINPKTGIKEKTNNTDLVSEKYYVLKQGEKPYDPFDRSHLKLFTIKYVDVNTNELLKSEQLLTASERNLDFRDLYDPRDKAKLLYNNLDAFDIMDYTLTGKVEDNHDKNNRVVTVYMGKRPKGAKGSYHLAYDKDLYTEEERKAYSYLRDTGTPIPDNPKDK
# [10] = test system: Streptococcus sp. 'group A'; assay: Streptococcus pyogenes SK(-)GAS viability under kanamycin – luminescence, BacTiterGlo, confirmation, counter-screen for streptokinase expression inhibitor project, dose response (AID 1900); format: functional, organism-based
# Streptococcus = assay: GAS UMAA2166 growth inhibition – luminescence, BacTiterGlo, counter-screen for streptokinase expression inhibitor project, dose response (AID 1915); format: functional, organism-based;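 note: potency for reduction of bacterial viability or growth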
# [11] = intracellular Trypanosoma cruzi inhibitors in host cells – cell-based, plate reader, cherry-pick samples, set 3, dose response (AID 651818); format: functional;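 note: compounds incubated with infected cells for about four days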
# [12] = biological target: T3, Sentrin-specific protease 8 (Homo sapiens, UniProt Q96LD8); format: functional;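 note: luminescence read-out of SENP8 inhibition, dose-response confirmation following an ultra-high-throughput screen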
# T3 sequence (Q96LD8 whole entry): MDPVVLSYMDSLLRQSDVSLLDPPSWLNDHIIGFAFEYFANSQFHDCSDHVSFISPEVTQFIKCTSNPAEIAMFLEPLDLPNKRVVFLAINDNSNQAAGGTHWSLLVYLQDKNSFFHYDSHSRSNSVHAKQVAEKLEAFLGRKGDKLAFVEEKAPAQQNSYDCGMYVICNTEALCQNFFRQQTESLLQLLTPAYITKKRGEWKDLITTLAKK
# [13] = biological target: T4, Sentrin-specific protease 7 (Homo sapiens, UniProt Q9BQF6); format: functional;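 note: Luminescence-based dose-response confirmation of ultra-high-throughput screening hits, measuring inhibition of SENP7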
# T4 sequence (Q9BQF6 whole entry): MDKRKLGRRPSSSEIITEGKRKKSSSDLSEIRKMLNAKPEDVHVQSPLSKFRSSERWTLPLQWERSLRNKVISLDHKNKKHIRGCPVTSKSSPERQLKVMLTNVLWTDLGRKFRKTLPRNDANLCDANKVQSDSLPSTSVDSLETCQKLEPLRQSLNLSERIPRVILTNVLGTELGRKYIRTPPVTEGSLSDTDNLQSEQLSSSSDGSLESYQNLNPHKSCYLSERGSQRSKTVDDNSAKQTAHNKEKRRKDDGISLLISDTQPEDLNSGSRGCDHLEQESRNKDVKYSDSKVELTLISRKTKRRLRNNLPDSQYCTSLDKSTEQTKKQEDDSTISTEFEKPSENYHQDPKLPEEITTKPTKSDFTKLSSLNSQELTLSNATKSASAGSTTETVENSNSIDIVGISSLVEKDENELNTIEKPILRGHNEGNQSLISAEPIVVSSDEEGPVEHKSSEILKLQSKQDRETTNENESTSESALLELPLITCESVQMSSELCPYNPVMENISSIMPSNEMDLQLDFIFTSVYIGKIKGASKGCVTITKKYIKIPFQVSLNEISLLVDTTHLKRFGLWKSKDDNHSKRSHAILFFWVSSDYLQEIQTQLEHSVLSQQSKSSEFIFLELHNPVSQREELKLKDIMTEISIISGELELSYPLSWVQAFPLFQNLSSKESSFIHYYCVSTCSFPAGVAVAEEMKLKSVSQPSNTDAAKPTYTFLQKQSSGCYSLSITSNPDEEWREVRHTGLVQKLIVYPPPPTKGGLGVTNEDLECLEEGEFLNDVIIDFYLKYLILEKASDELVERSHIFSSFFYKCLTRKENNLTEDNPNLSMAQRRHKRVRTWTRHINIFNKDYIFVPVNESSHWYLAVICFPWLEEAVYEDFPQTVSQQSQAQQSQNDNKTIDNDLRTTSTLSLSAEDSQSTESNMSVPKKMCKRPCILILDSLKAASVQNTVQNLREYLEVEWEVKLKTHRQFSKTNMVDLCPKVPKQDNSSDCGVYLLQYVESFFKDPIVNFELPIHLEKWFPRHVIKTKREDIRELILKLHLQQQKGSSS
# Caspase-3 = biological target: T5, Caspase-3 (Homo sapiens, UniProt P42574); format: functional;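 note: Dose-response selectivity test against caspase-3 for candidate inhibitors of sentrin-specific proteases (SENPs)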
# T5 sequence (P42574 whole entry): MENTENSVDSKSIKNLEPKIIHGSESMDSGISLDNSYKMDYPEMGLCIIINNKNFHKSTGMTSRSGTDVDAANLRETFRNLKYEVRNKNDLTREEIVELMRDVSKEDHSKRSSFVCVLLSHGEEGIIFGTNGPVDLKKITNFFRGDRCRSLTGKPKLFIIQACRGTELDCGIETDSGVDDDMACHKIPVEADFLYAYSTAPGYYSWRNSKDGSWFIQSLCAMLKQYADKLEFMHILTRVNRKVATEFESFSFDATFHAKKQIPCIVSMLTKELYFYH
# [14] = biological target: T6, Rac GTPase-activating protein 1 (Homo sapiens, UniProt Q9H0H5); assay: blockers of MgcRacGAP-driven Rac1 GTP hydrolysis – biochemical, ADP Hunter fluorescence, primary and confirmatory, confirmation (AID 624330); format: functional
# T6 sequence (Q9H0H5 whole entry): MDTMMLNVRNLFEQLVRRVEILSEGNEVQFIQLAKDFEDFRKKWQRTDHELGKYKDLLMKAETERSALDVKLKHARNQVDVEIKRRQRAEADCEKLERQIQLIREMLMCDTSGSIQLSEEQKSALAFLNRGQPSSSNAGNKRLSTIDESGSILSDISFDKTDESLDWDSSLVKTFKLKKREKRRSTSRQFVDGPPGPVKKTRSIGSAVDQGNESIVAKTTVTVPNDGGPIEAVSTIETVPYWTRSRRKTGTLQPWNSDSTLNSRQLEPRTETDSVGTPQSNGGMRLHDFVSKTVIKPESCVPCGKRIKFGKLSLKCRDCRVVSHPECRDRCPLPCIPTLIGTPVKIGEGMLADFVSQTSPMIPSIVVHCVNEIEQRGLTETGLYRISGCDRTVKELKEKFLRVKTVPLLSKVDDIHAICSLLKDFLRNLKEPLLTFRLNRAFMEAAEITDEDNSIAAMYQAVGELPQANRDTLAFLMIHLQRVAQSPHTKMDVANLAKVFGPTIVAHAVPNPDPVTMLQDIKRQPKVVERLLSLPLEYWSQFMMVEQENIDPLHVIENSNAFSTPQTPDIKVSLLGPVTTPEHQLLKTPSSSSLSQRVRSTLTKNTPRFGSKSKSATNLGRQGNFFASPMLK
# Nonstructural protein 1 = Nonstructural protein 1 (Influenza A virus, UniProt Q194T2); format: functional, Influenza A virus (A/California/07/2009(H1N1))
# [15] = biological target: T7, Sentrin-specific protease 6 (Homo sapiens, UniProt Q9GZR1); format: functional;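 note: Luminescence-based dose-response confirmatory assay of SENP6 inhibition, following up an ultra-high-throughput screen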
# T7 sequence (Q9GZR1 whole entry): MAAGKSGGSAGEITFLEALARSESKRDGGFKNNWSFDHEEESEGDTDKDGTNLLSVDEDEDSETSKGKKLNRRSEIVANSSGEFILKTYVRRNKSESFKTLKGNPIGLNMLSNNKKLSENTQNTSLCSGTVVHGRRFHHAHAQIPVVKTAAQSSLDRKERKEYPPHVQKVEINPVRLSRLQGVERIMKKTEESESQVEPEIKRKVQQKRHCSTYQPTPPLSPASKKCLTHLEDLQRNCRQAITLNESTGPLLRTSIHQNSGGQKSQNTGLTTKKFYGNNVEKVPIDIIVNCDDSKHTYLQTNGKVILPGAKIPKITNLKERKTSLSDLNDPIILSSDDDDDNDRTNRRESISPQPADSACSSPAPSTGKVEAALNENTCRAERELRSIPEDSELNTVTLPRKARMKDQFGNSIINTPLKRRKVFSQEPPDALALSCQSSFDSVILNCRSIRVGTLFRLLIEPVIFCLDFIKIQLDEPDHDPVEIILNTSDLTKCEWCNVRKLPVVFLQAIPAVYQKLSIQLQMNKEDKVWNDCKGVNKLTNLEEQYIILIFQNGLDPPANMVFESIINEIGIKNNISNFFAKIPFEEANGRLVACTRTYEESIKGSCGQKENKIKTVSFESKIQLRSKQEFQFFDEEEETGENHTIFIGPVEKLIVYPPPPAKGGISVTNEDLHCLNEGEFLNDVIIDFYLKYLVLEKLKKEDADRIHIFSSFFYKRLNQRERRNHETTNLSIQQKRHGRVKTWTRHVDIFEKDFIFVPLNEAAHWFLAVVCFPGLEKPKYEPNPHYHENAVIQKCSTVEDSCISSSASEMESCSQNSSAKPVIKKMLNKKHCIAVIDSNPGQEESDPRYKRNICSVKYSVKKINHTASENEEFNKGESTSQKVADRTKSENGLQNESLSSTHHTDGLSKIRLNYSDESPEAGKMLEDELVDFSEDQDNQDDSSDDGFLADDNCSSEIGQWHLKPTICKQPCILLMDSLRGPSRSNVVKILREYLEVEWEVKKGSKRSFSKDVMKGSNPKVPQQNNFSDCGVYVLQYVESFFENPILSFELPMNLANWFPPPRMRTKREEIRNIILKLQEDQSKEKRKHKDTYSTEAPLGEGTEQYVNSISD
# Chain of Voltage-dependent T-type calcium channel subunit alpha-1H (O95180 whole entry): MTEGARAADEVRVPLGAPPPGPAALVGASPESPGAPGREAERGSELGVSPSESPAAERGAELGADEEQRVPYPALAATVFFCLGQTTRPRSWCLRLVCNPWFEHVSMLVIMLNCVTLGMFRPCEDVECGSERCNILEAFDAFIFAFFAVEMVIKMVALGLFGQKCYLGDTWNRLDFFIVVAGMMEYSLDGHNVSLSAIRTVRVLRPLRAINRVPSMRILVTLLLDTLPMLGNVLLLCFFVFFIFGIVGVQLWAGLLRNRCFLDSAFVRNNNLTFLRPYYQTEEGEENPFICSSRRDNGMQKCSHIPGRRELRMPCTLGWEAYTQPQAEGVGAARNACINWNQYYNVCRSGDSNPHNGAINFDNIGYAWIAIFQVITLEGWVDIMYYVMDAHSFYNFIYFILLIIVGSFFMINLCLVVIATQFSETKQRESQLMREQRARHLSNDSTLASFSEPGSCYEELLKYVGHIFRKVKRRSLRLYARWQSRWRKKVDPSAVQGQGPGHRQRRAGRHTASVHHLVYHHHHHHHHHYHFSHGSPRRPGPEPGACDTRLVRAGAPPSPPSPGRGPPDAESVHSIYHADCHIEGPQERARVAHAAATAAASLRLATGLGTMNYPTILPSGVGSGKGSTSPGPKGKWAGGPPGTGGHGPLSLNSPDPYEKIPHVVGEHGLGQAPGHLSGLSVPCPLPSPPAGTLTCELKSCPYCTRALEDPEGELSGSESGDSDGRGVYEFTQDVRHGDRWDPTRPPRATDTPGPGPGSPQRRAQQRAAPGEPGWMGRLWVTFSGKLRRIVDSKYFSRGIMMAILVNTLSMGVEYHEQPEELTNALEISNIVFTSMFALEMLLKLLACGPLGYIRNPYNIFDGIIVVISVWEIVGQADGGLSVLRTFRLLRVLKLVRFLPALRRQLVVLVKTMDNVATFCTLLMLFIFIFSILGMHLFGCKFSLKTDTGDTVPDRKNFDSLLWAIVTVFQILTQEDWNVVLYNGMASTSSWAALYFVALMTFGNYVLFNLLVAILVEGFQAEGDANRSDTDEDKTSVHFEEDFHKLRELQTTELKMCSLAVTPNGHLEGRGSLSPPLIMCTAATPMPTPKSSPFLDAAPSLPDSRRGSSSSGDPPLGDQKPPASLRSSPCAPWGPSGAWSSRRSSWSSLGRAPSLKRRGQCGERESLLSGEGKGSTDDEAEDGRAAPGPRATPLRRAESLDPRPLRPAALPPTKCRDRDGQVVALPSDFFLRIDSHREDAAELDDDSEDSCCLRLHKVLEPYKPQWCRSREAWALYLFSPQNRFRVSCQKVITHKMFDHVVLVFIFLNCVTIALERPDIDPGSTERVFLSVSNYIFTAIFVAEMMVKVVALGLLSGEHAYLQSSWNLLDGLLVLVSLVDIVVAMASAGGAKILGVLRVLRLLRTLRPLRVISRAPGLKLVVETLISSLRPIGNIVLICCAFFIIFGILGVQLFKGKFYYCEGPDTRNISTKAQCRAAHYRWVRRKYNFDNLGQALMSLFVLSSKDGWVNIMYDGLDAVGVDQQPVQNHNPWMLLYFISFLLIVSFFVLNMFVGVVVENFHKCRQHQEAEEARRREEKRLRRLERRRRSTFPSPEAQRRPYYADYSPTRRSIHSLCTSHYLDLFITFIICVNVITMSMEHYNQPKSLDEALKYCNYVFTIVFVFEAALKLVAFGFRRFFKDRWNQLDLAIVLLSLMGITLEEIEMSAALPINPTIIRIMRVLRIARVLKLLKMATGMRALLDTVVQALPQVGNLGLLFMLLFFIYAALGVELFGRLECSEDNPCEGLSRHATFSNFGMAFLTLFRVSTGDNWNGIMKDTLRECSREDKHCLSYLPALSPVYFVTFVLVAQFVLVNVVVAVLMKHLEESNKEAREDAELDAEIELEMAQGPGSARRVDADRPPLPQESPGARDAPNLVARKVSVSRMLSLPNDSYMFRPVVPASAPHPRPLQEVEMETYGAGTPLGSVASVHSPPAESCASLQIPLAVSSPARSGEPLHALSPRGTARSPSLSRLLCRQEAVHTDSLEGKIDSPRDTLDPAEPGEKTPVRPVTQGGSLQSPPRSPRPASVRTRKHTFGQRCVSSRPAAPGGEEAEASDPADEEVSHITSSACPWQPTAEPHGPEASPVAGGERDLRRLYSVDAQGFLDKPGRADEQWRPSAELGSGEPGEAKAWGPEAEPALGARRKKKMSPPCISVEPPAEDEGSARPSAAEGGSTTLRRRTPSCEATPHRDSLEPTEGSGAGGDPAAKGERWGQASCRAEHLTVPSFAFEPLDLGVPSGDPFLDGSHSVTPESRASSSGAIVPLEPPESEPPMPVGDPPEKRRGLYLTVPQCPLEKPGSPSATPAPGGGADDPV
# Chain of Nonstructural protein 1 (Q194T2 whole entry): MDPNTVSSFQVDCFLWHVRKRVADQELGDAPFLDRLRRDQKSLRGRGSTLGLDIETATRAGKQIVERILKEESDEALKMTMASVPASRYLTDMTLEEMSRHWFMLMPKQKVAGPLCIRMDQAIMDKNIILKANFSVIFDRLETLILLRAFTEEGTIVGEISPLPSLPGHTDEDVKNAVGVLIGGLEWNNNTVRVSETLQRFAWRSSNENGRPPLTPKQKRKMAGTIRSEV
structure (smiles),measurement,setting,value
O=C(NNS(=O)(=O)c1ccc(F)cc1F)C1Cc2c(ccc3ccccc23)O1 (stereo unspecified),AC50,[1],8.04 µM (active)
same,AC50,[2],24.2 µM (active)
same,AC50,[3],37.5 µM (active)
CCOC(=O)c1c(NC(=O)C2COc3ccccc3O2)sc2c1CC(C)(C)NC2(C)C (stereo unspecified),CC50,[4],25.3 µM (active)
same,IC50,cells,36.2 µM (active)
same,AC50,[5],8.55 µM (active)
same,EC50,[6],10.6 µM (active)
same,EC50,[7],10.3 µM (active)
Cc1cccc(-c2noc(CN(C(=O)c3ccc(Br)o3)C(C)C)n2)c1,EC50,[8],11.1 µM (active)
Cc1cc(NC(=O)C(C)Oc2ccc(Cl)cc2Cl)n(-c2ccccc2)n1 (stereo unspecified),EC50,[8],8.91 µM (active)
O=C(CCCCCN1C(=O)c2cccc3cccc(c23)C1=O)NCCO,IC50,[9],> 20 µM (inactive)
COc1ccc(/C=N/NC(=O)Cc2csc(Nc3cccc(C(F)(F)F)c3)n2)cc1C,EC50,Streptokinase A,10.4 µM (active)
same,EC50,[10],9.89 µM (active)
same,EC50,[8],4.82 µM (active)
same,EC50,Streptococcus,> 150 µM (not active)
C[C@@H]1CN([C@@H](C)CO)C(=O)c2cccc(NC(=O)c3nc4ccccc4s3)c2O[C@H]1CN(C)Cc1ccc2c(c1)OCO2,AC50,[11],1.78 µM (active)
COc1ccc(NC(=O)Nc2ccc3c(c2)C(=O)N([C@H](C)CO)C[C@H](C)[C@@H](CN(C)CC2CCCCC2)OCCCC[C@@H](C)O3)cc1,AC50,[11],3.41 µM (active)
C[C@@H]1CN([C@H](C)CO)C(=O)Cc2cc(NS(=O)(=O)c3ccccc3)ccc2O[C@@H]1CN(C)Cc1ccc(Cl)c(Cl)c1,AC50,[11],3.52 µM (active)
C[C@H](CO)N1C[C@H](C)[C@H](CN(C)Cc2ccc(Cl)c(Cl)c2)Oc2c(NC(=O)c3ccc(-c4nccs4)cc3)cccc2C1=O,AC50,[11],4.5 µM (active)
C[C@H]1CN([C@@H](C)CO)C(=O)c2cccc(NC(=O)c3ccc(-c4nccs4)cc3)c2O[C@H]1CN(C)Cc1ccc(C(=O)Nc2ccccc2N)cc1,AC50,[11],1.49 µM (active)
CN(c1ccccc1)c1ccc(/C=N/N2CCOCC2)cc1,IC50,[12],39.5 µM (active)
same,IC50,[13],8.89 µM (active)
same,IC50,Caspase-3,18.8 µM (active)
same,IC50,[14],37.2 µM (active)
same,IC50,Nonstructural protein 1,> 100 µM (active)
same,IC50,[15],27.3 µM (active)
